Results reported in patent publication US8574563B2 (Bristol-Myers Squibb Company, priority 2006, dated 2013).

System: HCV 1b-377-neo replicon cells
Experiment: HCV replicon assay, HCV 1b-377-neo replicon cells (1b FRET)
Type: cell-based, Hepatitis C virus genotype 1b
Conditions: HCV 1b-377-neo replicon cells; HCV 1b genotype
Method in brief: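 Compounds were tested in genotype 1b subgenomic replicon cells carrying a neomycin marker, alongside a matched replicon line with an NS5A Y2065H substitution that confers resistance to a reference NS5A inhibitor.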

Row | Structure (SMILES) | EC50 range against HCV 1b (Table 2, Range)
1 | COC(=O)NC(C)(C)C(=O)N1CCC[C@H]1c1ncc(-c2ccc(-c3ccc(-c4cnc([C@@H]5CCCN5C(=O)C(C)(C)NC(=O)OC)[nH]4)cc3)cc2)[nH]1 [Example M7, methyl (2-((2S)-2-(5-(4′-(2-((2S)-1-(2-((methoxycarbonyl)amino)-2-methylpropanoyl)-2-pyrrolidinyl)-1H-imidazol-5-yl)-4-biphenylyl)-1H-imidazol-2-yl)-1-pyrrolidinyl)-1,1-dimethyl-2-oxoethyl)carbamate] | >A

Same assay, conditions: Hepatitis C virus, HCV 1b-377-neo replicon cells; HCV 1b genotype; read-out: EC50 range against HCV 1b (Table 2, Range)

Row | Structure (SMILES) | EC50 [pM]
2 | COC(=O)N[C@H](C(=O)N1CCC[C@H]1c1ncc(-c2ccc(-c3ccc(-c4cnc([C@@H]5CCCN5C(=O)[C@@H](NC(=NC#N)N(C)C)C(C)C)[nH]4)cc3)cc2)[nH]1)C(C)C [cj-17, methyl ((1S)-1-(((2S)-2-(5-(4′-(2-((2S)-1-(N-(cyano(dimethyl)carbamimidoyl)-L-valyl)-2-pyrrolidinyl)-1H-imidazol-5-yl)-4-biphenylyl)-1H-imidazol-2-yl)-1-pyrrolidinyl)carbonyl)-2-methylpropyl)carbamate] | 1 to 999
3 | COC(=O)N[C@@H](C)C(=O)N1CCC[C@H]1c1ncc(-c2cnc(-c3ccc(-c4[nH]c([C@@H]5CCCN5C(=O)[C@H](C)NC(=O)OC)nc4C(F)(F)F)cc3)nc2)[nH]1 [Example J50, methyl ((1S)-2-((2S)-2-(5-(4-(5-(2-((2S)-1-(N-(methoxycarbonyl)-L-alanyl)-2-pyrrolidinyl)-1H-imidazol-5-yl)-2-pyrimidinyl)phenyl)-4-(trifluoromethyl)-1H-imidazol-2-yl)-1-pyrrolidinyl)-1-methyl-2-oxoethyl)carbamate] | 1 to 999
4 | Cc1[nH]c([C@@H]2CCCN2C(=O)[C@@H](c2ccccc2)N(C)C)nc1-c1ccc(-c2ccc(-c3cnc([C@@H]4CCCN4C(=O)[C@@H](c4ccccc4)N(C)C)[nH]3)cc2)cc1 [Example E5, (1R)-2-((2S)-2-(4-(4′-(2-((2S)-1-((2R)-2-(dimethylamino)-2-phenylacetyl)-2-pyrrolidinyl)-1H-imidazol-4-yl)-4-biphenylyl)-5-methyl-1H-imidazol-2-yl)-1-pyrrolidinyl)-N,N-dimethyl-2-oxo-1-phenylethanamine] | 1 to 999
5 | O=C(NC1CCCC1)N[C@@H](C(=O)N1C[C@H](O)C[C@H]1c1ncc(-c2ccc(-c3ccc(-c4cnc([C@@H]5C[C@@H](O)CN5C(=O)[C@H](NC(=O)NC5CCCC5)c5ccccc5)[nH]4)cc3)cc2)[nH]1)c1ccccc1 [Example 24-15, N′,N′′′-(4,4′-biphenyldiylbis(1H-imidazole-5,2-diyl((2S,4R)-4-hydroxy-2,1-pyrrolidinediyl)((1R)-2-oxo-1-phenyl-2,1-ethanediyl)))bis(1-cyclopentylurea)] | 1000 to 99000
6 | C[C@@H](c1ncc(-c2ccc(-c3ccc(-c4cnc([C@H](C)N(C)C(=O)[C@@H](c5ccccc5)N5CCCCC5)[nH]4)cc3)cc2)[nH]1)N(C)C(=O)[C@@H](c1ccccc1)N1CCCCC1 [Example 24-18-3, (2R,2′R)-N,N′-(4,4′-biphenyldiylbis(1H-imidazole-5,2-diyl(1S)-1,1-ethanediyl))bis(N-methyl-2-phenyl-2-(1-piperidinyl)acetamide)] | 1 to 999
7 | COC(=O)N[C@@H](C)C(=O)N1CC2(CC2)C[C@H]1c1nc(-c2ccc(-c3ccc(-c4c[nH]c([C@@H]5CC6(CC6)CN5C(=O)[C@H](C)NC(=O)OC)n4)cc3)cc2)c[nH]1 [Example M147, methyl ((1S)-2-((6S)-6-(4-(4′-(2-((6S)-5-(N-(methoxycarbonyl)-L-alanyl)-5-azaspiro[2.4]hept-6-yl)-1H-imidazol-4-yl)-4-biphenylyl)-1H-imidazol-2-yl)-5-azaspiro[2.4]hept-5-yl)-1-methyl-2-oxoethyl)carbamate] | 1 to 999
8 | CCCc1[nH]c([C@@H]2CCCN2C(=O)[C@H](C)NC(=O)OC)nc1-c1ccc(-c2ccc(-c3cnc([C@@H]4CCCN4C(=O)[C@H](C)NC(=O)OC)[nH]3)cc2)cc1 [Example J14c, methyl ((1S)-2-((2S)-2-(4-(4′-(2-((2S)-1-(N-(methoxycarbonyl)-L-alanyl)-2-pyrrolidinyl)-4-propyl-1H-imidazol-5-yl)-4-biphenylyl)-1H-imidazol-2-yl)-1-pyrrolidinyl)-1-methyl-2-oxoethyl)carbamate] | 1 to 999
9 | COC(=O)N[C@H](C(=O)N1CCC[C@H]1c1ncc(-c2ccc(-c3ccc(-c4cnc([C@@H]5CCCN5C(=O)[C@@H](NC(=O)OC)C(C)(C)O)[nH]4)cc3)cc2)[nH]1)C(C)(C)O [Example M14, methyl ((1S)-2-hydroxy-1-(((2S)-2-(5-(4′-(2-((2S)-1-((2S)-3-hydroxy-2-((methoxycarbonyl)amino)-3-methylbutanoyl)-2-pyrrolidinyl)-1H-imidazol-5-yl)-4-biphenylyl)-1H-imidazol-2-yl)-1-pyrrolidinyl)carbonyl)-2-methylpropyl)carbamate] | 100000 to 999000
10 | COC(=O)N[C@@H](C(=O)N1CCC[C@H]1c1ncc(-c2ccc(-c3ccc(-c4cnc([C@@H]5CCCN5C(C)=O)[nH]4)cc3)cc2)[nH]1)c1ccccc1 [Example 31, methyl ((1R)-2-((2S)-2-(5-(4′-(2-((2S)-1-acetyl-2-pyrrolidinyl)-1H-imidazol-5-yl)-4-biphenylyl)-1H-imidazol-2-yl)-1-pyrrolidinyl)-2-oxo-1-phenylethyl)carbamate] | 1 to 999
11 | O=C(N[C@@H](C(=O)N1CCC[C@H]1c1ncc(-c2ccc(-c3ccc(-c4cnc([C@@H]5CCCN5C(=O)[C@H]5CCCO5)[nH]4)cc3)cc2)[nH]1)c1ccccc1)N1CCOCC1 [Example 120, N-((1R)-2-oxo-1-phenyl-2-((2S)-2-(5-(4′-(2-((2S)-1-((2R)-tetrahydro-2-furanylcarbonyl)-2-pyrrolidinyl)-1H-imidazol-5-yl)-4-biphenylyl)-1H-imidazol-2-yl)-1-pyrrolidinyl)ethyl)-4-morpholinecarboxamide] | 1 to 999
12 | COC(=O)N[C@@H](C(=O)N1CCC[C@H]1c1ncc(-c2ccc(-c3ccc(-c4cnc([C@@H]5CCCN5C(=O)[C@H](NC(=O)OC)c5ccccc5)[nH]4)nn3)cc2)[nH]1)c1ccccc1 [Example 152j-10] | 1000 to 99000
13 | COCC[C@H](NC(=O)OC)C(=O)N1CCC[C@H]1c1ncc(-c2ccc(-c3ccc(-c4cnc([C@@H]5CCCN5C(=O)[C@@H](NC(=O)OC)C(C)C)[nH]4)cc3)cc2)[nH]1 [cj-119, methyl ((1S)-1-(((2S)-2-(5-(4′-(2-((2S)-1-(N-(methoxycarbonyl)-O-methyl-L-homoseryl)-2-pyrrolidinyl)-1H-imidazol-5-yl)-4-biphenylyl)-1H-imidazol-2-yl)-1-pyrrolidinyl)carbonyl)-2-methylpropyl)carbamate] | 1 to 999
14 | CC(=O)NCCC(=O)N1CCC[C@H]1c1ncc(-c2ccc(-c3ccc(-c4cnc([C@@H]5CCCN5C(=O)CCNC(C)=O)[nH]4)cc3)cc2)[nH]1 [cj-134, N-(3-((2S)-2-(5-(4′-(2-((2S)-1-(3-acetamidopropanoyl)-2-pyrrolidinyl)-1H-imidazol-5-yl)-4-biphenylyl)-1H-imidazol-2-yl)-1-pyrrolidinyl)-3-oxopropyl)acetamide] | 1000 to 99000
15 | CCN(CC)[C@@H](C(=O)N1CCC[C@H]1c1ncc(-c2cnc(-c3ccc(-c4[nH]c([C@@H]5CCCN5C(=O)[C@@H](c5ccccc5)N(CC)CC)nc4C(F)(F)F)cc3)nc2)[nH]1)c1ccccc1 [Example J47, (1R)-2-((2S)-2-(5-(4-(5-(2-((2S)-1-((2R)-2-(diethylamino)-2-phenylacetyl)-2-pyrrolidinyl)-1H-imidazol-5-yl)-2-pyrimidinyl)phenyl)-4-(trifluoromethyl)-1H-imidazol-2-yl)-1-pyrrolidinyl)-N,N-diethyl-2-oxo-1-phenylethanamine] | 1 to 999
16 | CCN(CC)[C@H](CC(N)=O)C(=O)N1CCC[C@H]1c1ncc(-c2ccc(-c3ccc(-c4cnc([C@@H]5CCCN5C(=O)[C@@H](NC(=O)OC)C(C)C)[nH]4)cc3)cc2)[nH]1 [Example M89, methyl ((1S)-1-(((2S)-2-(5-(4′-(2-((2S)-1-(N^2,N^2-diethyl-D-asparaginyl)-2-pyrrolidinyl)-1H-imidazol-5-yl)-4-biphenylyl)-1H-imidazol-2-yl)-1-pyrrolidinyl)carbonyl)-2-methylpropyl)carbamate] | 1000 to 99000
17 | CC(C)(C)OC(=O)N1CC(C(=O)N2CCC[C@H]2c2ncc(-c3ccc(-c4ccc(-c5cnc([C@@H]6CCCN6C(=O)[C@@H](c6ccccc6)N6CCCCC6)[nH]5)cc4)cc3)[nH]2)C1 [Example 107-12, tert-butyl 3-(((2S)-2-(5-(4′-(2-((2S)-1-((2R)-2-phenyl-2-(1-piperidinyl)acetyl)-2-pyrrolidinyl)-1H-imidazol-5-yl)-4-biphenylyl)-1H-imidazol-2-yl)-1-pyrrolidinyl)carbonyl)-1-azetidinecarboxylate] | 1 to 999
18 | COC(=O)NCC(=O)N1CC2(CC2)C[C@H]1c1nc(-c2ccc(-c3ccc(-c4c[nH]c([C@@H]5CC6(CC6)CN5C(=O)CNC(=O)OC)n4)cc3)cc2)c[nH]1 [Example M146, methyl (2-((6S)-6-(4-(4′-(2-((6S)-5-(((methoxycarbonyl)amino)acetyl)-5-azaspiro[2.4]hept-6-yl)-1H-imidazol-4-yl)-4-biphenylyl)-1H-imidazol-2-yl)-5-azaspiro[2.4]hept-5-yl)-2-oxoethyl)carbamate] | 1 to 999
19 | CC(C)[C@H](NC(=O)OC(C)(C)C)C(=O)N1[C@@H]2C[C@@H]2C[C@H]1c1nc(-c2ccc(-c3ccc(-c4c[nH]c([C@@H]5C[C@H]6C[C@H]6N5C(=O)[C@@H](NC(=O)OC(C)(C)C)C(C)C)n4)cc3)cc2)c[nH]1 [Example M140a-ii, tert-butyl ((1S)-1-(((1R,3S,5R)-3-(4-(4′-(2-((1R,3S,5R)-2-((2S)-2-((tert-butoxycarbonyl)amino)-3-methylbutanoyl)-2-azabicyclo[3.1.0]hex-3-yl)-1H-imidazol-4-yl)-4-biphenylyl)-1H-imidazol-2-yl)-2-azabicyclo[3.1.0]hex-2-yl)carbonyl)-2-methylpropyl)carbamate] | 1000 to 99000
